ChEMBL document CHEMBL1145498, “A systematic interaction map of validated kinase inhibitors with Ser/Thr kinases” (Proc Natl Acad Sci U S A, 2007)

Assays:
[1] = biological target: Calcium/calmodulin-dependent protein kinase type II subunit beta (Homo sapiens) (UniProt Q13554)
[2] = biological target: Calcium/calmodulin-dependent protein kinase kinase 2 (Homo sapiens, UniProt Q96RR4)
[3] = biological target: Serine/threonine-protein kinase Chk2 (Homo sapiens, UniProt O96017)
[4] = biological target: T1, Myotonin-protein kinase (Homo sapiens) (UniProt Q09013)
T1 sequence (whole entry): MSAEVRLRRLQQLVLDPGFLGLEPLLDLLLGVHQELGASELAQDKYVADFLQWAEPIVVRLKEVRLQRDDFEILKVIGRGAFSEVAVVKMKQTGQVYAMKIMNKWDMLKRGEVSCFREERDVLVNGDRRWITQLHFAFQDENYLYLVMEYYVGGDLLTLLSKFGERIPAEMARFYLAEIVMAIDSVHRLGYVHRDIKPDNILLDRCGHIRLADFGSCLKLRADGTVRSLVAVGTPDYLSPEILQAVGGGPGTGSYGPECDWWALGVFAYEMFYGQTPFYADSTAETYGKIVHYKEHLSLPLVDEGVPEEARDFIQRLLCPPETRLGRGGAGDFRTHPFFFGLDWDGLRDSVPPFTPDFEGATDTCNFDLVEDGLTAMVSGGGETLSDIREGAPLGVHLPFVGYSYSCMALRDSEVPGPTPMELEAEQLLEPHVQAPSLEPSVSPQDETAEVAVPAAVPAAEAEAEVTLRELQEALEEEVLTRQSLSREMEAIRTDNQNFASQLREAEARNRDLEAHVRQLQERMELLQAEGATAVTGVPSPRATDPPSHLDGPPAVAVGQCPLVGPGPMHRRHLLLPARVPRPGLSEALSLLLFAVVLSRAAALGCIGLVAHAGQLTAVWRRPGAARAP

[5] = biological target: Dual specificity mitogen-activated protein kinase kinase 2 (Homo sapiens, UniProt P36507)
[6] = biological target: T2, Dual specificity mitogen-activated protein kinase kinase 6 (Homo sapiens) (UniProt P52564)
T2 sequence (whole entry): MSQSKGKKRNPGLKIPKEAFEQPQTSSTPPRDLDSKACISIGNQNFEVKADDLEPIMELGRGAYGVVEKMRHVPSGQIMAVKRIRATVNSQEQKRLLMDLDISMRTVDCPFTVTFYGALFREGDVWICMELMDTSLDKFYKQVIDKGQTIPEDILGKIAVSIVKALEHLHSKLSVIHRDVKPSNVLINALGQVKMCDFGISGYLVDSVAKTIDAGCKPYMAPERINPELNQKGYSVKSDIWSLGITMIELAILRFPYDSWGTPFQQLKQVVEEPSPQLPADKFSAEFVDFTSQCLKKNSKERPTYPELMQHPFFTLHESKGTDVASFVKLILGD

[7] = biological target: Mitogen-activated protein kinase 3 (Homo sapiens, UniProt P27361)
[8] = biological target: Serine/threonine-protein kinase Nek6 (Homo sapiens) (UniProt Q9HC98)
[9] = biological target: Serine/threonine-protein kinase PAK 5 (Homo sapiens) (UniProt Q9P286)
[10] = biological target: cAMP-dependent protein kinase catalytic subunit alpha (Homo sapiens) (UniProt P17612)
[11] = biological target: Serine/threonine-protein kinase RIO2 (Homo sapiens) (UniProt Q9BVS4)
[12] = biological target: Serine/threonine-protein kinase 38 (Homo sapiens) (UniProt Q15208)
[13] = biological target: Serine/threonine-protein kinase 26 (Homo sapiens) (UniProt Q9P289)

Chain of Calcium/calmodulin-dependent protein kinase kinase 2 (Q96RR4 2-588 limits assumed): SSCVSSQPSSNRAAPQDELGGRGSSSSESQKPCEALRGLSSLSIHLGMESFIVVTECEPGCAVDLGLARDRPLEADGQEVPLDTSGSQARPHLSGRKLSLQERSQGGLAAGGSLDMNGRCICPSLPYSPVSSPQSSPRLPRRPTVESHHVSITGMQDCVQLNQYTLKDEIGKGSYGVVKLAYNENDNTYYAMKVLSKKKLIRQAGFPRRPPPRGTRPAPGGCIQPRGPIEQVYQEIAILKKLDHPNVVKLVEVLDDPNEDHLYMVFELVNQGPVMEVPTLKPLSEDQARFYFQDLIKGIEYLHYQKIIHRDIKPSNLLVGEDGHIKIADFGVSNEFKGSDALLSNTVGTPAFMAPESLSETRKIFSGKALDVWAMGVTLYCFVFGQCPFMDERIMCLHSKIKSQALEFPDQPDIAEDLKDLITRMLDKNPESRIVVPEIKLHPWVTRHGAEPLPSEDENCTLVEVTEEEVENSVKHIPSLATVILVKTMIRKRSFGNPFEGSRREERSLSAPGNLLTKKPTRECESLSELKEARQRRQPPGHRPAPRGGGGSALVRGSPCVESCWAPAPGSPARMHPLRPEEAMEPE
Chain of Mitogen-activated protein kinase 3 (P27361 whole entry): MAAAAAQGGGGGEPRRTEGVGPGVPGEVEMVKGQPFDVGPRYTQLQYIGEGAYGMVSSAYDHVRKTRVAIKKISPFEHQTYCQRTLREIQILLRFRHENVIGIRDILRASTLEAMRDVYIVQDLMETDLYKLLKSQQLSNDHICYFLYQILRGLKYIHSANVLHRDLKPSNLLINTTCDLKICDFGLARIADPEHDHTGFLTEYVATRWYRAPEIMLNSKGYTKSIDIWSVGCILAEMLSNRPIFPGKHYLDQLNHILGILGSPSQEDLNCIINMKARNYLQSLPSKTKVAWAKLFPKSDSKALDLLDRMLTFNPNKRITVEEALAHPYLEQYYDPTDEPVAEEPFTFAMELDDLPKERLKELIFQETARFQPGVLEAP
Chain of Calcium/calmodulin-dependent protein kinase type II subunit beta (Homo sapiens) (Q13554 whole entry): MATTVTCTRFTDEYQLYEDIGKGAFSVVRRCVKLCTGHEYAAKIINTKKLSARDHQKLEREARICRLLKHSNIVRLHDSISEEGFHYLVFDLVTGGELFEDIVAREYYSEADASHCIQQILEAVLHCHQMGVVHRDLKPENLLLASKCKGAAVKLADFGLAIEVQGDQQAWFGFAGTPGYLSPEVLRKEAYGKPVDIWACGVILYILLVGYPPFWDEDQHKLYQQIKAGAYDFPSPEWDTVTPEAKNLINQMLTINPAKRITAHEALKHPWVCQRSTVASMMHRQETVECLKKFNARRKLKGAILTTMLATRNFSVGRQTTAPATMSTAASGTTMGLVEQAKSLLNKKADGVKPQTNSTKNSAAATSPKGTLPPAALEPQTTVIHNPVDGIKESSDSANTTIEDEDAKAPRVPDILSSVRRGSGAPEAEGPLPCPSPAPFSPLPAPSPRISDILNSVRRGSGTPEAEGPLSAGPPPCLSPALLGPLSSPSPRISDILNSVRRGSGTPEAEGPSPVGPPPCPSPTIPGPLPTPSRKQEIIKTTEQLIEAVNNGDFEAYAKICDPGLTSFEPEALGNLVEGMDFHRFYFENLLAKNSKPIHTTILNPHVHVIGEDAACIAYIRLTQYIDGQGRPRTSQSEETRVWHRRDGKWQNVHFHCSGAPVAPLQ
Chain of Serine/threonine-protein kinase RIO2 (Homo sapiens) (Q9BVS4 whole entry, looked up): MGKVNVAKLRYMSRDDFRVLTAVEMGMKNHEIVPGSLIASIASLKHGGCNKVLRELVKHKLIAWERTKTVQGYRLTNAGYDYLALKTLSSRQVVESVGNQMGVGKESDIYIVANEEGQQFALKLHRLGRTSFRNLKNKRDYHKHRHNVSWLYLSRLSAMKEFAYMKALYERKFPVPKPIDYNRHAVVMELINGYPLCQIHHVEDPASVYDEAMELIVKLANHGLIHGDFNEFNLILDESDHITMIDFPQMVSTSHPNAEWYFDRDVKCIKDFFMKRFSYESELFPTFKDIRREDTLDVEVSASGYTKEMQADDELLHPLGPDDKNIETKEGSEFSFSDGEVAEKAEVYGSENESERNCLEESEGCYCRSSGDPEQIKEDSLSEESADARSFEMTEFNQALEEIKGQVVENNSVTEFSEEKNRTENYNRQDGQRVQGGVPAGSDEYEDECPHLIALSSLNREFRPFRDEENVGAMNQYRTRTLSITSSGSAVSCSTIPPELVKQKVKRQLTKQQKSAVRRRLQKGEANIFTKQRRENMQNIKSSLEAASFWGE
Chain of Serine/threonine-protein kinase Nek6 (Homo sapiens) (Q9HC98 whole entry): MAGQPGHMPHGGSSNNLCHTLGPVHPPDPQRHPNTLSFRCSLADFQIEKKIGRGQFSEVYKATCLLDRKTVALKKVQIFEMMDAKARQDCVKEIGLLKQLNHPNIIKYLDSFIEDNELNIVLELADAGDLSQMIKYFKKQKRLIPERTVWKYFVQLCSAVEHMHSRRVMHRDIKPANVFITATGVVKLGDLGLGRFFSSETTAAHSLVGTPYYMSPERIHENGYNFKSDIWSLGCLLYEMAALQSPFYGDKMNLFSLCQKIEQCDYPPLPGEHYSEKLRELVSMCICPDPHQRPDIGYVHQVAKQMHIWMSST
Chain of Serine/threonine-protein kinase 38 (Homo sapiens) (Q15208 2-465 limits assumed): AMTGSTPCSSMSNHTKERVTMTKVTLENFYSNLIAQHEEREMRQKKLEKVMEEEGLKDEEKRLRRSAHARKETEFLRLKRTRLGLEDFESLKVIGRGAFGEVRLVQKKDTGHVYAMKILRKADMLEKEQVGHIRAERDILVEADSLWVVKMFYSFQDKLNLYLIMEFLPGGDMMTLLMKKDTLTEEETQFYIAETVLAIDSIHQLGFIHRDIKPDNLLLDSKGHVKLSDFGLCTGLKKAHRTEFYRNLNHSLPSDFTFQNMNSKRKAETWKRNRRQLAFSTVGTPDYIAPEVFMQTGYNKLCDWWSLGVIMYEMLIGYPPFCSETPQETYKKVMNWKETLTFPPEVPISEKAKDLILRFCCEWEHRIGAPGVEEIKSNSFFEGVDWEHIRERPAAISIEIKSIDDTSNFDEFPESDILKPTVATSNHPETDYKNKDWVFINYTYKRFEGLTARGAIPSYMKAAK
Chain of Serine/threonine-protein kinase PAK 5 (Homo sapiens) (Q9P286 whole entry, looked up): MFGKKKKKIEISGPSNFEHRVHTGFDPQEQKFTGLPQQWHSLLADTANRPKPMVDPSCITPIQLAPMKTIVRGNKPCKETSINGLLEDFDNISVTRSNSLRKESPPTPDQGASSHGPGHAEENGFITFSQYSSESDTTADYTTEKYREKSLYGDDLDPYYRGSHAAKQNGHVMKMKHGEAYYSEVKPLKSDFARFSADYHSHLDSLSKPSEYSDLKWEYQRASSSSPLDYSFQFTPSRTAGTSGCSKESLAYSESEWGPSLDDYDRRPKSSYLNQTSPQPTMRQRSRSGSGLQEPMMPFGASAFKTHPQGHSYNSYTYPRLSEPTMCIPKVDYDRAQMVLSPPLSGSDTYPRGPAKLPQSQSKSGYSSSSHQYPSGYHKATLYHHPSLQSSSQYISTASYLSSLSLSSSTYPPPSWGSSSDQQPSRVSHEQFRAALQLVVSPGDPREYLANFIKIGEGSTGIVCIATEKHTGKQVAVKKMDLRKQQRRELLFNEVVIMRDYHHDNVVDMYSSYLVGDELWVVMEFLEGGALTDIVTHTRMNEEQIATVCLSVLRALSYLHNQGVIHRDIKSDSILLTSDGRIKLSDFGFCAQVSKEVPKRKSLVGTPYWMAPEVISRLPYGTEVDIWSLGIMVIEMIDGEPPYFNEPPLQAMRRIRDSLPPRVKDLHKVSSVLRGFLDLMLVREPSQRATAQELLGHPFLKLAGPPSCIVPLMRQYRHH
Chain of Dual specificity mitogen-activated protein kinase kinase 2 (P36507 whole entry): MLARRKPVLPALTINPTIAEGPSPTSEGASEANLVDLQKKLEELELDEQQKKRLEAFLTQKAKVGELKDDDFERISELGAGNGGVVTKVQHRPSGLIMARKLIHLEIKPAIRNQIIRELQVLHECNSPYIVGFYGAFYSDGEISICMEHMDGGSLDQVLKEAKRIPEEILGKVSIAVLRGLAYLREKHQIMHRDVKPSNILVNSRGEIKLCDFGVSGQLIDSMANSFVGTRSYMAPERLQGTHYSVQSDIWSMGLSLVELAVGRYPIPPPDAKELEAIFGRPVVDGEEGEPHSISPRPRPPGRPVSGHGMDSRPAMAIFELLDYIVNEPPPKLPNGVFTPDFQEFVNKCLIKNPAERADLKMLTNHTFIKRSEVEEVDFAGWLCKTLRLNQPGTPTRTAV
Chain of Serine/threonine-protein kinase Chk2 (O96017 whole entry): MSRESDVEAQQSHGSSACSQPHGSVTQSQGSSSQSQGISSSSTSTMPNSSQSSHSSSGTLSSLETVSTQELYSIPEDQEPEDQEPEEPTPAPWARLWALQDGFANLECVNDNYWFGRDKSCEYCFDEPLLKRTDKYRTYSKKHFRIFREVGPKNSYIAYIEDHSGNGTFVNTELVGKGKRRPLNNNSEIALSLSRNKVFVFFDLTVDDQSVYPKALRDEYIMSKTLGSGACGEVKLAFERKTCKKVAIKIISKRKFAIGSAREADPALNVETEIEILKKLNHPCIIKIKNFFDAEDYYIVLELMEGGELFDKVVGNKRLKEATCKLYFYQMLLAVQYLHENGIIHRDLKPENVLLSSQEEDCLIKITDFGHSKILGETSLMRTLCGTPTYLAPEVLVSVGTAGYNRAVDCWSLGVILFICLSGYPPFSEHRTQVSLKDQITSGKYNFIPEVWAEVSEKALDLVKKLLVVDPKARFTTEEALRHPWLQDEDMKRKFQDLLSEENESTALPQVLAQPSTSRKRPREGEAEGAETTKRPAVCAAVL

Compound | ΔTm [1] [°C] | ΔTm [2] [°C] | ΔTm [3] [°C] | ΔTm [4] [°C] | ΔTm [5] [°C] | ΔTm [6] [°C] | ΔTm [7] [°C] | ΔTm [8] [°C] | ΔTm [9] [°C] | ΔTm [10] [°C] | ΔTm [11] [°C] | ΔTm [12] [°C] | ΔTm [13] [°C]
Cn1cc(C2=C(c3cn(CCCN)c4ccccc34)C(=O)NC2=O)c2ccccc21 | 1.7 | -0.1 | 5.9 | 6.9 | 0.6 | 0.8 | -0.3 | -0.4 | 1.4 | 2.6 | 0.5 | 0.2 | -0.2
Ic1cccc(CSc2nnc(-c3ccncc3)o2)c1 | 0.1 | -0.6 | -0.9 | -0.1 | -0.8 | 0.3 | 0.5 | -0.8 | -0.2 | 0.3 | 1.6 | 0.8 | -0.6
Clc1ccc(Nc2nnc(Cc3ccncc3)c3ccccc23)cc1 | -0.3 | 0.5 | 0.2 | -0.5 | 0.5 | 0.4 | 0 | 0.1 | -0.7 | 0.2 | -0.8 |  | 
Nc1ncnc2c1c(I)cn2[C@@H]1O[C@H](CO)[C@@H](O)[C@H]1O | 0.4 | 2 | 0.9 | -0.3 | 1.9 | 2.7 | 1.5 | -0.2 | 0.7 | 1.3 | 1.7 | 1.7 | 2.1
COC(=O)[C@]1(O)C[C@@H]2O[C@@]1(C)n1c3ccccc3c3c4c(c5c6ccccc6n2c5c31)C(=O)NC4 (single isomer, unassigned) | 2.7 | 4.2 | 6 | 3.9 |  |  | 2 | 0 | 5.5 | 7.1 | 1.4 | 3.9 | 1.6
Nc1nc(Nc2ccc(S(N)(=O)=O)cc2)nn1C(=S)Nc1c(F)cccc1F | 1.6 | 8.6 | 8.6 | 7 | 5.1 | 7.6 | 3.6 | 0.2 | 5.5 | 4.1 | -0.4 | 6.4 | 8.3
OC[C@H]1O[C@@H](n2cnc3cc(Cl)c(Cl)cc32)[C@H](O)[C@@H]1O | -0.1 | 0.6 | 0.2 | 0.1 | -0.3 | 0.2 | 0.4 |  | 0.2 | 0.4 | 0.7 | 0.2 | -0.3
CN[C@@H]1CC2O[C@@](C)([C@@H]1OC)n1c3ccccc3c3c4c(c5c6ccccc6n2c5c31)C(=O)NC4 |  | 18.6 |  | 14.1 |  | 11.6 | 1.3 | -0.3 | 12.4 | 11.3 | 0.5 | 5.7 | 8.8
COc1cc2ncnc(Nc3cccc(O)c3)c2cc1OC | 0.2 | 1.1 | 1.8 | 0.9 | 0.1 |  | -0.2 | -0.1 | 0.5 | 0.1 | 3.4 | 0.4 | 0.1
O=C1c2ccccc2-c2n[nH]c3cccc1c23 |  | 2.4 | 6 | 0.3 | 1.3 | 4.7 | 0.9 | 0.9 | 1.1 | 2.3 | 2.2 | 1 | 3.3
